{"source": "paper PMC9959096", "about": "“Selective α3β4 Nicotinic Acetylcholine Receptor Ligand as a Potential Tracer for Drug Addiction” (International Journal of Molecular Sciences, 2023)", "key": {"human α7 nAChR [1]": {"target": "T1, human α7 nAChR (Homo sapiens, UniProt P36544)", "T1 construct": "expressed in transfected cells", "assay": "Radioligand displacement binding assay, membranes of SH-SY5Y cells stably transfected with human α7 nAChR", "details": "for Selectivity Ratios α4β2/α7: ratio of Ki values"}, "human α4β2 nAChR": {"target": "T2, human α4β2 nAChR (Homo sapiens, UniProt P17787+P43681)", "T2 construct": "expressed in transfected cells", "assay": "Competitive radioligand displacement binding assay, membranes of HEK293 cells stably transfected with human α4β2 nAChR"}, "human α3β4 nAChR [2]": {"target": "T3, human α3β4 nAChR (Homo sapiens, UniProt P30926+P32297)", "T3 construct": "expressed in transfected cells", "assay": "Competitive radioligand displacement binding assay, membranes of HEK293 cells stably transfected with human α3β4 nAChR", "details": "for Selectivity Ratios α4β2/α3β4 / Selectivity Ratios α7/α3β4: ratio of Ki values; for Selectivity Ratios α7/α3β4: given as fold"}, "human α3β4 nAChR [3]": {"target": "T3, human α3β4 nAChR", "details": "cited from earlier work; for Selectivity Ratios α4β2/α3β4 / Selectivity Ratios α7/α3β4: lead compounds, ratio of Ki values"}, "human α7 nAChR [4]": {"target": "T1, human α7 nAChR", "parameters": "method as in PMID 27774124", "details": "lead compounds, ratio of Ki values; cited from earlier work"}, "[5]": {"details": "SH-SY5Y membranes, [3H]methyllycaconitine ~0.5 nM per table footnote, mean of two independent experiments, single values in brackets, read-out: Binding Affinity Ki α7"}}, "note": "Like-named read-outs stand apart in the source and are kept apart here."}
{"smiles": "Fc1cc(-c2cn([C@@H]3CN4CCC3CC4)nn2)ccc1OCc1ccccc1", "note": "[AK3, (1R,3S,4R)-3-(4-(4-(Benzyloxy)-3-fluorophenyl)-1H-1,2,3-triazol-1-yl)quinuclidine]", "values": [{"measurement": "Ki", "setting": "human α7 nAChR [1]", "result": 9760, "unit": "nM"}, {"measurement": "Selectivity Ratios α4β2/α7", "setting": "human α7 nAChR [1]", "result": 0.02}, {"measurement": "Ki", "setting": "human α4β2 nAChR", "result": 180, "unit": "nM"}, {"measurement": "melting point", "result": "173 to 175", "unit": "°C"}, {"measurement": "Ki", "setting": "human α3β4 nAChR [2]", "result": 3.18, "unit": "nM"}, {"measurement": "Selectivity Ratios α4β2/α3β4", "setting": "human α3β4 nAChR [2]", "result": 56.6}, {"measurement": "Selectivity Ratios α7/α3β4", "setting": "human α3β4 nAChR [2]", "result": 3069}]}
{"smiles": "Oc1ccc(-c2cn([C@@H]3CN4CCC3CC4)nn2)cc1F", "note": "[AK1, 2-Fluoro-4-(1-((1R,3S,4R)-quinuclidin-3-yl)-1H-1,2,3-triazol-4-yl)phenol]", "values": [{"measurement": "Ki", "setting": "human α7 nAChR [1]; [5]", "result": 26.7, "unit": "nM"}, {"measurement": "Selectivity Ratios α4β2/α7", "setting": "human α7 nAChR [1]", "result": 18.9}, {"measurement": "Ki", "setting": "human α4β2 nAChR", "result": 504, "unit": "nM"}, {"measurement": "melting point", "result": "258 °C (dec.)"}, {"measurement": "Ki", "setting": "human α3β4 nAChR [2]", "result": 2.28, "unit": "nM"}, {"measurement": "Selectivity Ratios α4β2/α3β4", "setting": "human α3β4 nAChR [2]", "result": 221}, {"measurement": "Selectivity Ratios α7/α3β4", "setting": "human α3β4 nAChR [2]", "result": 11.7}]}
{"smiles": "Fc1ccc(-c2cn([C@@H]3CN4CCC3CC4)nn2)cc1", "note": "[(S)-T1]", "values": [{"measurement": "Ki", "setting": "human α3β4 nAChR [3]; selective α3β4 nAChR ligands", "result": "< 10", "unit": "nM"}]}
{"smiles": "Oc1ccc(-c2cn([C@H]3CN4CCC3CC4)nn2)cc1F", "note": "[AK2, 2-Fluoro-4-(1-((1S,3R,4S)-quinuclidin-3-yl)-1H-1,2,3-triazol-4-yl)phenol]", "values": [{"measurement": "Ki", "setting": "human α7 nAChR [1]; [5]", "result": 4.49, "unit": "nM"}, {"measurement": "Selectivity Ratios α4β2/α7", "setting": "human α7 nAChR [1]", "result": 1331}, {"measurement": "Ki", "setting": "human α4β2 nAChR", "result": 5980, "unit": "nM"}, {"measurement": "melting point", "result": "275 °C (dec.)"}, {"measurement": "Ki", "setting": "human α3β4 nAChR [2]", "result": 601, "unit": "nM"}, {"measurement": "Selectivity Ratios α4β2/α3β4", "setting": "human α3β4 nAChR [2]", "result": 9.95}, {"measurement": "Selectivity Ratios α7/α3β4", "setting": "human α3β4 nAChR [2]", "result": 0.01}]}
{"smiles": "Oc1ccc(-c2cn([C@@H]3CN4CCC3CC4)nn2)cc1", "note": "[(S)-QND8]", "values": [{"measurement": "Selectivity Ratios α4β2/α3β4", "setting": "human α3β4 nAChR [3]", "result": 186}, {"measurement": "Selectivity Ratios α7/α3β4", "setting": "human α3β4 nAChR [3]", "result": 11.8}, {"measurement": "Selectivity Ratios α4β2/α7", "setting": "human α7 nAChR [4]", "result": 15.7}]}
{"smiles": "Fc1cc(-c2cn([C@H]3CN4CCC3CC4)nn2)ccc1OCc1ccccc1", "note": "[AK4, (1S,3R,4S)-3-(4-(4-(Benzyloxy)-3-fluorophenyl)-1H-1,2,3-triazol-1-yl)quinuclidine]", "values": [{"measurement": "Ki", "setting": "human α7 nAChR [1]; [5]", "result": 53.6, "unit": "nM"}, {"measurement": "Selectivity Ratios α4β2/α7", "setting": "human α7 nAChR [1]", "result": 77.9}, {"measurement": "Ki", "setting": "human α4β2 nAChR", "result": 4180, "unit": "nM"}, {"measurement": "melting point", "result": "180 to 181", "unit": "°C"}, {"measurement": "Ki", "setting": "human α3β4 nAChR [2]", "result": 112, "unit": "nM"}, {"measurement": "Selectivity Ratios α4β2/α3β4", "setting": "human α3β4 nAChR [2]", "result": 37.3}, {"measurement": "Selectivity Ratios α7/α3β4", "setting": "human α3β4 nAChR [2]", "result": 0.48}]}
{"smiles": "Fc1cccc(-c2cn([C@@H]3CN4CCC3CC4)nn2)c1", "note": "[(S)-T2]", "values": [{"measurement": "Selectivity Ratios α4β2/α3β4", "setting": "human α3β4 nAChR [3]", "result": 231}, {"measurement": "Selectivity Ratios α7/α3β4", "setting": "human α3β4 nAChR [3]", "result": 294}, {"measurement": "Selectivity Ratios α4β2/α7", "setting": "human α7 nAChR [4]", "result": 0.79}]}
